In ChEMBL document CHEMBL5725325, “Combination of kinase inhibitors and uses thereof” (2017):

Columns and labels:
[1] = target: T1, Phosphatidylinositol 4,5-bisphosphate 3-kinase catalytic subunit delta isoform (Homo sapiens, UniProt O00329); assay: (§1) PI 3-Kinase HTRF Assay: Briefly, the assay is a time resolved FRET assay that indirectly measures PIP3 product formed by the activity of a PI3-K. The kinase reaction is performed in a microtitre plate (e.g., a 384 well microtitre plate). The total reaction volume is approximately 20 ul per well. In the first step, each well receives 2 ul of test compound in 20% dimethylsulphoxide resulting in a 2% DMSO final concentration. Next, approximately 14.5 ul of a kinase/PIP2 mixture (diluted in 1x reaction buffer) is added per well for a final concentration of 0.25-0.3 ug/ml kinase and 10 uM PIP2. The plate is sealed and incubated for 15 minutes at room temperature. To start the reaction, 3.5 ul of ATP (diluted in 1x reaction buffer) is added per well for a final concentration of 10 uM ATP. The plate is sealed and incubated for 1 hour at room temperature. The reaction is stopped by adding 5 ul of Stop Solution per well and then 5 ul of Detection Mix is added per well. The plate is sealed, incubated for 1 hour at room temperature, and then read on an appropriate plate reader.
T1 sequence (O00329 whole entry): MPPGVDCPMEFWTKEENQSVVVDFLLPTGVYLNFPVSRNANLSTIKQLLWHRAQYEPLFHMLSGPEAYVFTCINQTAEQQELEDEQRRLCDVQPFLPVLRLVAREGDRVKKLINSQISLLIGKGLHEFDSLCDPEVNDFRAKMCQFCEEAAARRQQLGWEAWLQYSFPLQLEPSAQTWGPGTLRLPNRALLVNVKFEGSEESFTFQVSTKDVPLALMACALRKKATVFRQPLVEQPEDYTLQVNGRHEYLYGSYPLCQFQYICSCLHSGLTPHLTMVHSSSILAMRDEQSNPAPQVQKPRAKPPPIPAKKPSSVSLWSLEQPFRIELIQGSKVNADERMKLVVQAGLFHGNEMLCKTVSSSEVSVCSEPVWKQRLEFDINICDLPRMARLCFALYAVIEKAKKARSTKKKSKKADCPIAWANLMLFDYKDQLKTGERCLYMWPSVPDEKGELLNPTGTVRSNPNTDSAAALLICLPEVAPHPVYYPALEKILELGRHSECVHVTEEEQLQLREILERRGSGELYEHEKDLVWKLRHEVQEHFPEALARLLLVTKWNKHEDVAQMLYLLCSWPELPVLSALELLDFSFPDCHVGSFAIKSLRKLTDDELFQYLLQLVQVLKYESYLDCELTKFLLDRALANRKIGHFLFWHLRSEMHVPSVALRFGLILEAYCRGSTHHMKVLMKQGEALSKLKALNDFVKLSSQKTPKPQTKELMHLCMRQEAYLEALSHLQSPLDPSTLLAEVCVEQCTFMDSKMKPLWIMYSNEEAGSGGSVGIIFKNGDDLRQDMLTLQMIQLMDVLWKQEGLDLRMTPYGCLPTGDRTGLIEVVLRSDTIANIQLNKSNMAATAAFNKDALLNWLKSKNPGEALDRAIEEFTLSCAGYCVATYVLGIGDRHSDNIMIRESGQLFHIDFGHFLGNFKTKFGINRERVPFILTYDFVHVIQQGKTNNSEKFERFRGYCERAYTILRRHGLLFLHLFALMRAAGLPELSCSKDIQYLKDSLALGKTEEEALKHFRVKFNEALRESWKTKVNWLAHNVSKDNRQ

[2] = target: Phosphatidylinositol 4,5-bisphosphate 3-kinase catalytic subunit gamma isoform (Homo sapiens, UniProt P48736); assay: as §1
Phosphatidylinositol 4,5-bisphosphate 3-kinase catalytic subunit gamma isoform, sequence (P48736 whole entry, canonical isoform): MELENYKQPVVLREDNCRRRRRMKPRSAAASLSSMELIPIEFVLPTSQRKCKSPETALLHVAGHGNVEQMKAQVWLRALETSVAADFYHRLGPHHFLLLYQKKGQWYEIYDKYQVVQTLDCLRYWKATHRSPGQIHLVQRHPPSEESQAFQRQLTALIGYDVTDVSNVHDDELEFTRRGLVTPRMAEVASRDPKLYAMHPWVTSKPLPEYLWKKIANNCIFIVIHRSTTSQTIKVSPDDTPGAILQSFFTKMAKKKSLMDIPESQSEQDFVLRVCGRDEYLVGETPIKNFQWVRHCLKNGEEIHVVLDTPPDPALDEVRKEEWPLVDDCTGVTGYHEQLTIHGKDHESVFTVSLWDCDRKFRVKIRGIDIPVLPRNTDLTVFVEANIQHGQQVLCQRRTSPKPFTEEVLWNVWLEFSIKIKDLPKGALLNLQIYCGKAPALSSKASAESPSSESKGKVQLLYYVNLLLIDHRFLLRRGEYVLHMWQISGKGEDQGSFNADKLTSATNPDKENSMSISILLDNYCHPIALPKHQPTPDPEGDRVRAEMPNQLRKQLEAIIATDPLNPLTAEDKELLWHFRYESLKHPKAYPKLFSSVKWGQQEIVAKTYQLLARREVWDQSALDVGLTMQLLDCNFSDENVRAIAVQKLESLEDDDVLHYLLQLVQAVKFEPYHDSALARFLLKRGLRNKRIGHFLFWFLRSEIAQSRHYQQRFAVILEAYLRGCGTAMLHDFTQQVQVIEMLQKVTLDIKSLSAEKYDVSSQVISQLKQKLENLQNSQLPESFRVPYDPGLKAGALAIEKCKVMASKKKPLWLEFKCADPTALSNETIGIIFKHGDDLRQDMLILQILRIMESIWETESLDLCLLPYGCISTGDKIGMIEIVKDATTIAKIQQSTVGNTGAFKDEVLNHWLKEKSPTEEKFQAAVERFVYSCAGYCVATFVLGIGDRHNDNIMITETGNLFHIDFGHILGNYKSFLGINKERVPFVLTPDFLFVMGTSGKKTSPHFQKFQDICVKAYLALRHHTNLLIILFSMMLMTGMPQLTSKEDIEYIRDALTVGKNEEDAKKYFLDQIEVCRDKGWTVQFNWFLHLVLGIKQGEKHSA

[3] = target: Phosphatidylinositol 3-kinase regulatory subunit beta (Homo sapiens, UniProt O00459); assay: as §1
Phosphatidylinositol 3-kinase regulatory subunit beta, sequence (O00459 whole entry): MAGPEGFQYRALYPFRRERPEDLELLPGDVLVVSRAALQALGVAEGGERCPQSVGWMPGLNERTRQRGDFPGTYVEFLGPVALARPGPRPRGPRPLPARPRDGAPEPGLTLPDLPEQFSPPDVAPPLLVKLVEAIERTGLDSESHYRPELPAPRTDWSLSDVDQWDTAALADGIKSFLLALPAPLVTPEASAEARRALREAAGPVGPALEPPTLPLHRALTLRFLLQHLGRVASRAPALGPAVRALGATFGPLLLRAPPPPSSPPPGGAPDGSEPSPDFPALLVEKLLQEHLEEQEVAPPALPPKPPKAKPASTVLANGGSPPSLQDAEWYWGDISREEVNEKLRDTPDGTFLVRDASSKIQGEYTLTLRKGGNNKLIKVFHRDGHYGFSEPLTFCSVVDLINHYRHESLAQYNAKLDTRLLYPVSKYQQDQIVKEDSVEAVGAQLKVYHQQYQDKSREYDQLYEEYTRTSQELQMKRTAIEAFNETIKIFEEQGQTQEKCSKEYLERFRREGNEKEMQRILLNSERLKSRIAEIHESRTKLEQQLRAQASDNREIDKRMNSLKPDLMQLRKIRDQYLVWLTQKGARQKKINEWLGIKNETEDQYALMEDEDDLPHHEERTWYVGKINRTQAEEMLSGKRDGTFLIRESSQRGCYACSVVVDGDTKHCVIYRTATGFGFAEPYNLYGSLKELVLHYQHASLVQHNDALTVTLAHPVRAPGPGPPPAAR

[4] = as §1

SMILES | IC50 [2] | IC50 [3] | IC50 [4] | also measured
Nc1nc2cc(-c3ccc4ncc(C(=O)N5CCC(N6CCC(F)(F)C6)C5)n4c3)ccc2o1 (stereo not drawn) | < 10 µM | – | – | IC50 [1]: < 10 µM
Nc1nc2cc(-c3ccc4ncc(N5CCN(C(=O)C6CCCN6)CC5)nc4c3)ccc2o1 (stereo not drawn) | – | < 0.1 µM | < 0.1 µM | –
CC(C)(N)C(=O)N1CCN(c2cnc3ccc(-c4ccc5oc(N)nc5c4)nc3n2)CC1 | – | < 10 µM | – | –
C[C@@H]1COCCN1C1CN(c2cnc3ccc(-c4ccc5oc(N)nc5c4)nc3n2)C1 | – | – | < 0.1 µM | –
Nc1nc2cc(-c3ccc4ncn(-c5ccccc5)c4c3)ccc2o1 | < 1 µM | – | – | –
C[C@@H](N)C(=O)N1CCN(c2cnc3ccc(-c4ccc5oc(N)nc5c4)nc3n2)CC1 | – | < 0.1 µM | – | –
